# Earlier results, collected in patent US8143291B2, “Indole compounds bearing aryl or heteroaryl groups having sphingosine-1-phosphate (S1P) receptor biological activity” (Allergan, Inc., priority 2008, dated 2012).
# Tested on: perfused porcine eyes
# Details: by altering paracellular permeability, IOVS 45, 2263, 2004
compound,measurement,value
"CCCCCCCCCCCCC/C=C/[C@@H](O)[C@@H](N)COP(=O)(O)O [S1P, Sphingosine-1-phosphate]",decrease of outflow facility,> 30%
